# Test results as given in US11285132B2, “Uses of indolinone compounds” (Oncternal Therapeutics, Inc., priority 2016, dated 2022).
# How the values were obtained:
# DLBCL cell lines = assay: Combination with other targeted agents, summary over DLBCL cell lines; type: cell-based
# Method: (§1) The latter synergism could be linked to the previously mentioned negative trend between TK-216 IC50 values and the presence of BCL2 translocation.
# (§2) Cell lines were exposed to YK-4-279 or TK-216, alone or in combination with other compounds, for 72 h using a Tecan D300e Digital Dispenser and 96 well plates. Cell proliferation was measured with MTT. Synergy was determined with the Chou-Talalay combination index. Gene expression profiling (GEP) was performed with the Illumina HumanHT 12 Expression BeadChips. In vivo studies were done in NOD-SCID mice and treatments started with 60 mm3 tumor volumes sc.
# Since lenalidomide is active in mantle cell lymphoma (MCL), the synergism of the combination of TK-216 and lenalidomide was confirmed also in two MCL cell lines.
# TMD8 cells xenografts = assay: TMD8 ABC-DLBCL xenograft in NOD-SCID mice; type: in vivo; conditions: 100 mg/Kg, BID
# Method: NOD-Scid mice subcutaneously inoculated with TMD8 cells (15×10^6) were split in two groups respectively treated with TK-216 (100 mg/kg, BID, po, n=9) and control vehicle (n=10). In each box-plot, the line in the middle of the box represents the median and the box extends from the 25th to the 75th percentile (interquartile range, IQ); the whiskers extend to the upper and lower adjacent values (i.e., ±1.5 IQ).
# 56 lymphoma cell lines [27 diffuse large B cell lymphoma (DLBCL); 10 mantle cell lymphoma; 6 marginal zone lymphoma; 5 anaplastic large T-cell lymphoma; 8 others] were exposed to TK-216 increasing doses for 72 h using a Tecan D300e Digital Dispenser and 384 well plates. Cell proliferation was measured with MTT. In vivo study was done in NOD-SCID mice; treatments were started with approximately sc 60 mm3 tumor volumes. Sensitivity was not affected by the lymphoma cell of origin (B vs T; activated B cell type DLBCL versus germinal center type DLBCL) or MYC and TP53 status. There was a non-statistically significant trend for lower sensitivity in cell lines bearing BCL2 chromosomal translocation (P=0.07, DLBCL only; P=0.06, all cell lines).
# as §1, §2
smiles,measurement,setting,value
"O=C(CC1(O)C(=O)Nc2c(Cl)ccc(Cl)c21)c1ccc(C2CC2)cc1 (stereo not drawn) [TK216, 4,7-Dichloro-3-(2-(4-cyclopropylphenyl)-2-oxoethyl)-3-hydroxyindolin-2-one]",combination of TK-216 with the BET inhibitor OTX015 (MK-8628),"DLBCL cell lines; with OTX015, DLBCL cell lines",synergism in 2/4 cells and additive effect in 1/4 cells
same,combination of TK-216 with the immunomodulator lenalidomide,"DLBCL cell lines; with lenalidomide, activated B cell type DLBCL",synergism in 2/2 activated B cell type DLBCL
same,combination of TK-216 with the anti-CD20 monoclonal antibody rituximab,"DLBCL cell lines; with rituximab, DLBCL cell lines",synergism in 2/3 cells
same,combination of TK-216 with the BCL2 inhibitor venetoclax,"DLBCL cell lines; with venetoclax, DLBCL cell lines",synergism in 3/4 cells
same,reduction in tumor volume at D11,"TMD8 cells xenografts; D11, P<0.01 vs control group",four-times
same,tumor growth compared with control group,TMD8 cells xenografts; n=9,reduction in tumor growth
